# Read-outs that look alike come from different tables or passages of the source.
# Assays:
# [1] = Phase 1 single-dose pharmacokinetics and safety study of migalastat HCl in non-Fabry subjects with renal impairment (Example 1, AT1001-015); assay type: in vivo, human; details: single oral 150 mg migalastat HCl; for CL/F / t1/2 / tmax: non-Fabry subjects
# Description: The eGFR estimated by the Cockcroft-Gault equation per the FDA Guidance for renal impairment studies.
# Volunteers were enrolled into two cohorts stratified for renal function calculated using the Cockcroft-Gault equation for creatinine clearance (CLcr). Subjects were assigned to groups based on an estimated CLcr at screening as calculated using the Cockcroft-Gault equation.
# Subjects were grouped according to degree of renal dysfunction: mild (CLcr ≥60 and <90 mL/min), moderate (CLcr ≥30 and <60 mL/min), or severe (CLcr ≥15 and <30 mL/min)
# [2] = Pharmacokinetics of migalastat HCl in a Fabry patient with severe renal impairment (P3, 2004-5029; Example 6); assay type: in vivo, human
# Description: Migalastat levels can be measured via methods known in the art. […] Microcentrifuge tubes containing 100 μl of the tissue homogenate or 50 μl of plasma may then be spiked with 500 ng/mL 13C d2-AT1001 HCl internal standard (manufactured by MDS Pharma Services). A 600 μl volume of 5 mM HCl in 95/5 MeOH:H2O can then be added and the tubes vortexed for 2 minutes, followed by centrifugation at 21000×g for 10 minutes at room temperature. The supernatants may then be collected into a clean, 96-well plate, diluted with 5 mM HCl in dH2O and applied to a 96-well solid phase extraction (SPE) plate (Waters Corp., Milford Mass.). […] The liquid chromatography can be conducted using an ACN:water:formate binary mobile phase system (mobile phase A: 5 mM ammonium formate, 0.5% formic acid in 95:5 ACN:water; mobile phase B: 5 mM ammonium formate, 0.5% formic acid in 5:47.5:47.5 ACN:MeOH:water) with a flow rate of 0.7 mL/minute on an Halo HILIC column (150×4.6 mm, 2.7 μm) (Advanced Materials Technology, Inc.). MS/MS analysis may be carried out under APCi positive ion mode. The same procedure may be followed for migalastat determination in plasma except without homogenization. […] A 12-point calibration curve and quality control samples may be prepared. […] To derive approximate molar concentrations, one gram of tissue may be estimated as one mL of volume.
# PK data was collected every three months.
# [3] = renal function group Mild (N = 8)
# [4] = renal function group Moderate (N = 8)
# [5] = renal function group Normal (N = 8)
# [6] = Severe RI Fabry patient 2004-5029 (P3), CLcr 21, 5/17, Q4D regimen
# [7] = human, plasma, Severe RI Fabry patient 2004-5029 (P3), CLcr 21, 5/17, Q4D regimen
compound,measurement,setting,value
"OC[C@H]1NC[C@H](O)[C@@H](O)[C@H]1O [migalastat, (2R,3S,4R,55)-2-(hydroxymethyl) piperdine-3,4,5-triol]",Incidence of adverse events,[1]; all renal function groups,comparable across all renal function groups
same,mean plasma migalastat AUC0-∞ increase compared to healthy control subjects,[1]; mild renal impairment,1.2 fold
same,mean plasma migalastat AUC0-∞ increase compared to healthy control subjects,[1]; moderate renal impairment,1.8 fold
same,CL/F,[1]; [3],10.3 L/h
same,t1/2,[1]; [3],7.66 h
same,tmax,[1]; [3],2.50 h
same,CL/F,[1]; [4],6.68 L/h
same,tmax,[1]; [4],3.00 h
same,CL/F,[1]; [5],12.1 L/h
same,t1/2,[1]; [5],6.42 h
same,tmax,[1]; [5],2.50 h
same,CL/F,[1]; renal function group Severe (N = 8),2.67 L/h
same,tmax compared to healthy control subjects,[1]; severe group,slightly delayed
same,mean plasma migalastat AUC0-∞ increase compared to healthy control subjects,[1]; severe renal impairment,4.5 fold
same,Plasma Migalastat Conc,"[2]; Fabry patient P3, May ′17 (Q4D), 0 h",BLQ
same,CL/F,[2]; [6],4.67 L/h
same,Frel,[2]; [6],2.6
same,concentration at 0 h,"[2]; human, plasma, Plasma Migalastat Conc, Fabry patient P3, Aug ′15, 0 h",36.4 ng/mL
same,concentration at 3 h,"[2]; human, plasma, Plasma Migalastat Conc, Fabry patient P3, Aug ′15, 3 h",2160 ng/mL
same,concentration at 24 h,"[2]; human, plasma, Plasma Migalastat Conc, Fabry patient P3, Aug ′15, 24 h",211 ng/mL
same,concentration at 48 h,"[2]; human, plasma, Plasma Migalastat Conc, Fabry patient P3, Aug ′15, 48 h",62.4 ng/mL
same,concentration at 48 h,"[2]; human, plasma, Plasma Migalastat Conc, Fabry patient P3, Aug ′17 (Q4D), 48 h",130 ng/mL
same,concentration at 96 h,"[2]; human, plasma, Plasma Migalastat Conc, Fabry patient P3, Aug ′17 (Q4D), 96 h",61.3 ng/mL
same,concentration at 0 h,"[2]; human, plasma, Plasma Migalastat Conc, Fabry patient P3, Feb ′15, 0 h",19.9 ng/mL
same,concentration at 3 h,"[2]; human, plasma, Plasma Migalastat Conc, Fabry patient P3, Feb ′15, 3 h",1620 ng/mL
same,concentration at 24 h,"[2]; human, plasma, Plasma Migalastat Conc, Fabry patient P3, Feb ′15, 24 h",168 ng/mL
same,concentration at 48 h,"[2]; human, plasma, Plasma Migalastat Conc, Fabry patient P3, Feb ′15, 48 h",41.8 ng/mL
same,concentration at 0 h,"[2]; human, plasma, Plasma Migalastat Conc, Fabry patient P3, Mar ′11, 0 h",38.1 ng/mL
same,concentration at 3 h,"[2]; human, plasma, Plasma Migalastat Conc, Fabry patient P3, Mar ′11, 3 h",1560 ng/mL
same,concentration at 4 h,"[2]; human, plasma, Plasma Migalastat Conc, Fabry patient P3, Mar ′11, 4 h",1570 ng/mL
same,concentration at 8 h,"[2]; human, plasma, Plasma Migalastat Conc, Fabry patient P3, Mar ′11, 8 h",802 ng/mL
same,concentration at 3 h,"[2]; human, plasma, Plasma Migalastat Conc, Fabry patient P3, May ′17 (Q4D), 3 h",2110 ng/mL
same,concentration at 4 h,"[2]; human, plasma, Plasma Migalastat Conc, Fabry patient P3, May ′17 (Q4D), 4 h",1970 ng/mL
same,concentration at 8 h,"[2]; human, plasma, Plasma Migalastat Conc, Fabry patient P3, May ′17 (Q4D), 8 h",1380 ng/mL
same,concentration at 24 h,"[2]; human, plasma, Plasma Migalastat Conc, Fabry patient P3, May ′17 (Q4D), 24 h",358 ng/mL
same,concentration at 48 h,"[2]; human, plasma, Plasma Migalastat Conc, Fabry patient P3, May ′17 (Q4D), 48 h",77.4 ng/mL
same,concentration at 96 h,"[2]; human, plasma, Plasma Migalastat Conc, Fabry patient P3, May ′17 (Q4D), 96 h",18.4 ng/mL
same,concentration at 48 h,"[2]; human, plasma, Plasma Migalastat Conc, Fabry patient P3, Nov ′17 (Q4D), 48 h",401 ng/mL
same,concentration at 96 h,"[2]; human, plasma, Plasma Migalastat Conc, Fabry patient P3, Nov ′17 (Q4D), 96 h",86.2 ng/mL
same,concentration at 48 h,"[2]; human, plasma, Severe RI Fabry patient 2004-5029 (P3), CLcr 15, 11/17, Q4D regimen, read-out: C48 h",401 ng/mL
same,concentration at 96 h,"[2]; human, plasma, Severe RI Fabry patient 2004-5029 (P3), CLcr 15, 11/17, Q4D regimen, read-out: C96 h",86.2 ng/mL
same,concentration at 48 h,"[2]; human, plasma, Severe RI Fabry patient 2004-5029 (P3), CLcr 19, 8/17, Q4D regimen, read-out: C48 h",130 ng/mL
same,concentration at 96 h,"[2]; human, plasma, Severe RI Fabry patient 2004-5029 (P3), CLcr 19, 8/17, Q4D regimen, read-out: C96 h",61.3 ng/mL
same,AUC(0-inf),[2]; [7],32100 ng·h/mL
same,AUC(0-t),[2]; [7],31900 ng·h/mL
same,Cmax,[2]; [7],2250 ng/mL
same,half-life,[2]; [7],13.2 h
same,tmax,[2]; [7],2 h
same,concentration at 48 h,"[2]; human, plasma, Severe RI Fabry patient 2004-5029 (P3), CLcr 21, 5/17, Q4D regimen, read-out: C48 h",77.4 ng/mL
same,concentration at 96 h,"[2]; human, plasma, Severe RI Fabry patient 2004-5029 (P3), CLcr 21, 5/17, Q4D regimen, read-out: C96 h",18.4 ng/mL
